# From patent US11820961B2, “Musk compositions and methods of use thereof” (Takasago International Corporation, priority 2015, dated 2023)
# Legend:
# salivary cortisol = salivary cortisol level before and after a stress test (enzyme immunoassay kit); assay type: in vivo, human; details: Table 6; before vs immediately after ten minute stress test; about 10-15 panelists; DPG = −10.9%
# Source text: Salivary cortisol is widely used as a biomarker for stress. The purpose of this study was to investigate the influence of individual fragrance compounds, particularly musk compounds, on a subject's cortisol levels before and after exposure to a stressor. The subject sniffed each musk compound, then was exposed to a stressor. The goal was to identify one or more specific musk compounds which caused the least amount of change in cortisol levels or decreased a subject's cortisol levels compared to before administration, thereby reducing or inhibiting a response to stress stimuli.
# (§1) Fourteen female panelists age 30-45 participated in this study. Stress was induced using a timed ten minute mathematical/word test in a small group competition setting. Fragrance was introduced at intervals during the stress test. Saliva was collected before (Pre) and immediately after (Post) the stress test. Saliva samples were assayed for salivary alpha-amylase using a commercially available kinetic reaction assay kit and for salivary cortisol using a highly sensitive enzyme immunoassay kit (Salimetrics®, State College, Pa.).
# (§2) Stress was induced in a number of panelists (about 10-15) for each tested compound using a timed ten minute mathematical/word test in a small group competition setting. The test compound was introduced at intervals during the stress test.
# (§3) Saliva was collected before and immediately after the stress test. Saliva samples were assayed for salivary cortisol levels and salivary alpha-amylase activity using a commercially available kinetic reaction assay kit (Salimetrics®, State College, Pa.).
# (§4) Methodology for number of drops. Ten to twenty-four panelists age 30-45 participated in this study. The amount of fragrance tested was divided equally and applied onto 6 blotter cards each 3 by 5 inches in size. They were weighed and placed in the test room 30 minutes before the stress test to equilibrate.
# (§5) Stress was induced using a timed ten-minute mathematical/word test in a small group competition setting. The blotter cards were removed and weighed again after the stress test. […]
# salivary alpha-amylase = salivary alpha-amylase level before and after a stress test (kinetic reaction assay kit); assay type: in vivo, human; details: Table 6; before vs immediately after ten minute stress test; about 10-15 panelists; DPG = +60.7%
# Source text: Salivary alpha-amylase is widely used as a biomarker for acute stress. The purpose of this study was to investigate the influence of individual fragrance compounds, particularly musk compounds, on a subject's salivary alpha-amylase levels before and after exposure to a stressor. The subject sniffed each musk compound, then was exposed to a stressor. The goal was to identify one or more specific musk compounds which caused the least amount of change in salivary alpha-amylase levels or decreased a subject's salivary alpha-amylase levels compared to before administration, thereby reducing or inhibiting a response to stress stimuli. […] The p values of the control as compared to each musk compound were calculated as follows: rosamusk (p=0.0366), habanolide (p=0.1163), ambrettolide (p=0.1397).
# Twelve to fourteen female panelists age 30-45 participated in this study for each of the test materials. Stress was induced using a timed ten minute mathematical/word test in a small group competition setting. The musk material was introduced at intervals during the stress test.
# Saliva was collected before and immediately after the stress test. Saliva samples were assayed for salivary alpha-amylase activity using a commercially available kinetic reaction assay kit (Salimetrics®, State College, Pa.).
# as §1, §2, §3, §4, §5
# [1] = chassis-air partition coefficient, BC-162 shampoo chassis; assay type: physicochemical
# Source text: (§6) The chassis-air partition coefficient can be measured for materials in various chassis.
# (§7) Ki,chassis-air is the chassis-air partition coefficient for component i in the fragrance formula
# (§8) Ci, chassis is the concentration of component i in the product formula chassis in molarity, M
# (§9) Ci, air is the concentration of component i in the headspace air in equilibrium with the formula chassis in molarity, M
# (§10) For the “Example Accord” in the BC-162 shampoo chassis components, the log chassis-air partition coefficients are as listed in Table 11.
# [2] = chassis-air partition coefficient, APDO soft solid chassis; assay type: physicochemical
# Source text: as §6, §7, §8, §9, §10
structure (smiles),measurement,setting,value
"CC1=CCC(C/C=C(\C)CO)C1(C)C (stereo not drawn) [Hindinol ®, (E)-2-methyl-4-(2,2,3-trimethyl-1-cyclopent-3-enyl)but-2-en-1-ol]",Cortisol Data (change in salivary cortisol),salivary cortisol,−25.0%
same,Salivary Amylase Data (change in salivary alpha-amylase),salivary alpha-amylase,+82.3%
CC1CCCCCCCCCCCCC(=O)C1 [L-Muscone],Cortisol Data (change in salivary cortisol),salivary cortisol,+25.6%
same,Salivary Amylase Data (change in salivary alpha-amylase),salivary alpha-amylase,+14.5%
"CC(=O)C(C)CC[C@H]1CCC(C)C1(C)C (stereo partly drawn) [3-methyl-5-((1R)-2,2,3-trimethylcyclopentyl)pentan-2-one]",Salivary Amylase Data (change in salivary alpha-amylase),salivary alpha-amylase,−6.1%
"C=C.CCCCCCCCCCCC(=O)O [ZENOLIDE, ethylene dodecanoate]","logK, BC162 (log chassis-air partition coefficient)",[1],6.131
same,"logK, APDO Soft Solid (log chassis-air partition coefficient)",[2],6.966
"CC(=O)c1cc2c(cc1C)C(C)(C)C(C)C2(C)C (stereo not drawn) [Phantolide, 1-(1,1,2,3,3,6-hexamethyl-2H-inden-5-yl)ethanone]",Cortisol Data (change in salivary cortisol),salivary cortisol,−12.3%
same,Salivary Amylase Data (change in salivary alpha-amylase),salivary alpha-amylase,−19.2%
